The values below come from PMC12865225 (Clinical and Translational Science, 2026).

One data set deals with T1, OATP1B3 (Homo sapiens, UniProt Q9NPD5).
T1 construct: expressed in transfected cells; host or cells: HEK293 (recombinant baculovirus-mediated transduction)
T1 sequence (Q9NPD5 1-702): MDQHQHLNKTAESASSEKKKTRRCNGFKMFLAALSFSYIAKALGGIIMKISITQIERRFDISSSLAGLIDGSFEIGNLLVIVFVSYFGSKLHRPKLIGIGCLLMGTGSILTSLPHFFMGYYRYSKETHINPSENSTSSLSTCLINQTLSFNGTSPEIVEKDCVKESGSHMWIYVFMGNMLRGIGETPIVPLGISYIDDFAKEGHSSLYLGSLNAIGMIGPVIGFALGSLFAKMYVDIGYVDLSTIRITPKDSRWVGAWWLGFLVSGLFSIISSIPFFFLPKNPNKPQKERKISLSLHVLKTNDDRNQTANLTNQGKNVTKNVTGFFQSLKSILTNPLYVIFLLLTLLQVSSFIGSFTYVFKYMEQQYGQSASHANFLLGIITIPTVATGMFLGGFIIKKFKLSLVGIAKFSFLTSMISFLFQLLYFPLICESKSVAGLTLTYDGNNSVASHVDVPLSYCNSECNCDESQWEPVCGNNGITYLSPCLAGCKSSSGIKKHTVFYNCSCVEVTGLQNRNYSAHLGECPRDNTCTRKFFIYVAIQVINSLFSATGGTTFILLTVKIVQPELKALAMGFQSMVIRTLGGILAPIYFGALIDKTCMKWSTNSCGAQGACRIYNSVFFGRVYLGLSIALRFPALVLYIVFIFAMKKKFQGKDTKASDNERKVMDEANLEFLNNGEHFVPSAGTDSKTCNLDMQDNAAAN
Description: OATP1B3 inhibition with fluorescent substrate 8-Fluo-cAMP in HEK293 cells. Type of data set: cell-based. As to conditions: 2.5 µM 8-Fluo-cAMP, 5 min, 30 min preincubation. Here is the method: (§1) 8- (2- [Fluoresceinyl]aminoethylthio)adenosine- 3', 5'- cyclic monophosphate (8-Fluo-cAMP) was acquired from Biolog Life Science Institute (Bremen, Germany), 4′,5′-dibromofluorescein was acquired from Sigma-Aldrich (St. Louis, MO, USA) and 2′,7′-dichlorofluorescein was acquired from Santa Cruz Biotechnology (Dallas, TX, USA).
(§2) Inhibition studies with fluorescent substrates in OATP transduced HEK293 cells The concentrations of fluorescent probe substrates were 1 µM 2′,7′-dichlorofluorescein for OATP1B1, 2.5 µM 8-Fluo-cAMP for OATP1B3 and 1 µM 4′,5′-dibromofluorescein for OATP2B1, and these concentrations were selected to be within or below of previously reported […]
(§3) reported linear ranges of transport for these substrate-transporter combinations.1,2,4 8-Fluo-cAMP was dissolved in ultrapure water, while dimethyl sulfoxide (DMSO) was used for all other compounds. […] For the quantification of fluorescent substrates, cells were lysed with 120 µl of lysis solution (1% Triton X-100, 5 mM EDTA, 150 mM sodium chloride and 150 mM TRIC-hydrochloride and adjusted to pH 8 with sodium hydroxide) for 30 min at 300 RPM shaking before transferring 80 µl of samples to a transparent 96-well plate containing 20 µl of 0.5 M sodium hydroxide. […] The plates were measured with a fluorescent plate reader (Varioskan LUX from ThermoFisher Scientific). […]

The conditions of data set [1]: cited from earlier work.
The target of data set [2] is T2, OATP1B1 (Homo sapiens, UniProt Q9Y6L6).
T2 construct: expressed in transfected cells; host or cells: HEK293 (recombinant baculovirus-mediated transduction)
T2 sequence (Q9Y6L6 1-691): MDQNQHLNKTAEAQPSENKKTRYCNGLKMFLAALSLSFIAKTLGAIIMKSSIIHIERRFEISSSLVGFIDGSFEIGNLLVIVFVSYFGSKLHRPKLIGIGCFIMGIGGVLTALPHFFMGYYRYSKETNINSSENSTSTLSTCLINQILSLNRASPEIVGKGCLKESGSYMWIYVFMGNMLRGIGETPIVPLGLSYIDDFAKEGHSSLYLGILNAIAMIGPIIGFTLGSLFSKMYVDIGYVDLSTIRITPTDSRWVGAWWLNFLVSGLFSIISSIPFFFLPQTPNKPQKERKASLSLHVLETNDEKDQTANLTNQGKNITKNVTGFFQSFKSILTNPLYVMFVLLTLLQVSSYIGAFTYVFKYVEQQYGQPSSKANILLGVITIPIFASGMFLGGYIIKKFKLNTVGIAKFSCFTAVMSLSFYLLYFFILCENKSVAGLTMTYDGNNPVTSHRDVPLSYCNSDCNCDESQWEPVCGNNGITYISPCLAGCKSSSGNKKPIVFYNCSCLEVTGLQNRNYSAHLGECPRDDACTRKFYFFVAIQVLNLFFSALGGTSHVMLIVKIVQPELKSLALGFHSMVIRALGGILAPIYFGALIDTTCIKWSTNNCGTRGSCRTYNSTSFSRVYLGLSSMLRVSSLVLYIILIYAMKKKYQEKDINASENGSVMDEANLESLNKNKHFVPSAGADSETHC
As to the kind of experiment: Irreversible inhibition (reversibility) assay of OATP1B1. As to conditions: for reversibility of OATP1B1 inhibition: wash-out after 15 min preincubation. Type of data set: cell-based. The procedure: were removed and 300 µl of warm TP-buffer was added to each well and incubated for 5 min.
The washing was repeated twice , after which the transport assays were conducted in the presence of 1 µM 2′,7′ -dichlorofluorescein for 5 min. The wells that were pre -incubated with […]
incubated with the vehicle contained three different inhibitor concentrations. After the transport

For data set [3], the target named is T2, OATP1B1. As to the kind of experiment: OATP1B1 inhibition with fluorescent substrate 2′,7′-dichlorofluorescein in HEK293 cells. As to conditions: 1 µM 2′,7′-dichlorofluorescein, 30 min preincubation. Type of data set: cell-based. Here is the method: as §1, §2, §3
The next data set concerns T3, MRP3.
T3 construct: expressed in transfected cells; host or cells: HEK293 cells
As to the kind of experiment: Efflux transport assay in MRP3 HEK293 membrane vesicles. Type of data set: biochemical, human. As to conditions: 5 and 50 µM, 10 min.

The subject of the next data set is CYP3A4. As to conditions: model input; cited from earlier work.
[4] abbreviates: 1 µM 2′,7′-dichlorofluorescein, 5 min, read-out: IC50 OATP1B1, inhibitor present only during the transport assay.
Setting [5] is: cells washed three times before the transport assay, read-out: IC50 OATP1B1, inhibitor present only during the preincubation.

pIC50: −log10 of the molar value. Bounds are passed on as bounds.

As usually defined, the pIC50 is the negative decadic logarithm of the IC50, by convention in mol/L. By IC50 is commonly meant the midpoint of a concentration-inhibition curve. In the case of `Cc1onc(-c2c(Cl)cccc2Cl)c1C(=O)N[C@@H]1C(=O)N2[C@@H]1SC(C)(C)[C@@H]2C(=O)O` [Dicloxacillin], the pIC50 on OATP1B3 was 5.37; on OATP1B1 [2] (setting [4]) it was 5.32; on OATP1B1 [2] (setting [5]), 3.62. In data set [1], the “decrease of renal clearance by probenecid” value is 4 fold. Further, the “increase of C max and AUC by cyclosporine and probenecid” value in data set [1] was under 2 fold. In addition, the “reversibility of OATP1B1 inhibition” value on OATP1B1 [2] is on record as “reversible”. The IC50 at 5 min on OATP1B1 [3] (human, HEK293 cells transduced to express OATP1B1, pH 7.4, probe 2′,7′-dichlorofluorescein 1 µM) was found to be 3.59 µM. In addition, the “transport by MRP3” value in the data set with MRP3 is given as “did not transport”.

Regarding `Cc1onc(-c2c(F)cccc2Cl)c1C(=O)N[C@@H]1C(=O)N2[C@@H]1SC(C)(C)[C@@H]2C(=O)O` [Flucloxacillin], the pIC50 was 4.33 at OATP1B3, 4.81 on OATP1B1 [2] (setting [4]), 3.34 at OATP1B1 [2] (setting [5]) and 5.03 on OATP1B1 [3] (5 min). Besides, on OATP1B1 [2], the “reversibility of OATP1B1 inhibition” value is reported as “reversible”. In the data set with CYP3A4, the “CYP3A4 Indmax” value is on record as 4.6. Also, the “transport by MRP3” value in the data set with MRP3 is “did not transport”.
